In brackets after ≈: the same amount, converted by molar mass.
Assays:
Type in all cases: functional
Culex pipiens pallens [1] = assay: Insecticidal activity against Culex pipiens pallens (mosquito) fourth-instar larvae assessed as larvicidal activity at 2 mg/L measured 8 days post treatment; conditions: 192 h
Plutella xylostella [2] = assay: Insecticidal activity against Plutella xylostella (diamondback moth) […] larvae infested on compound pre-treated fresh cabbage leaves assessed as larvicidal activity at 200 mg/L measured 3 days post treatment
Mythimna separata [3] = assay: Insecticidal activity against Mythimna separata (Oriental armyworm) fourth-instar larvae infested compound pre-treated corn leaves assessed as larvicidal activity at 100 mg/L measured 4 days post treatment
Mythimna separata [4] = assay: Insecticidal activity against Mythimna separata (Oriental armyworm) fourth-instar larvae infested compound pre-treated corn leaves assessed as larvicidal activity at 50 mg/L measured 4 days post treatment
Culex pipiens pallens [5] = assay: Insecticidal activity against Culex pipiens pallens (mosquito) fourth-instar larvae assessed as larvicidal activity at 0.5 mg/L measured 8 days post treatment; conditions: 192 h
Mythimna separata [6] = assay: Insecticidal activity against Mythimna separata (Oriental armyworm) fourth-instar larvae infested compound pre-treated corn leaves assessed as larvicidal activity at 25 mg/L measured 4 days post treatment
Culex pipiens pallens [7] = assay: Insecticidal activity against Culex pipiens pallens (mosquito) fourth-instar larvae assessed as larvicidal activity at 1 mg/L measured 8 days post treatment; conditions: 192 h
Mythimna separata [8] = assay: Insecticidal activity against Mythimna separata (Oriental armyworm) fourth-instar larvae infested compound pre-treated corn leaves assessed as larvicidal activity at 10 mg/L measured 4 days post treatment
Plutella xylostella [9] = assay: Insecticidal activity against Plutella xylostella (diamondback moth) […] larvae infested on compound pre-treated fresh cabbage leaves assessed as larvicidal activity at 20 mg/L measured 3 days post treatment
Plutella xylostella [10] = assay: Insecticidal activity against Plutella xylostella (diamondback moth) […] larvae infested on compound pre-treated fresh cabbage leaves assessed as larvicidal activity at 5 mg/L measured 3 days post treatment
Plutella xylostella [11] = assay: Insecticidal activity against Plutella xylostella (diamondback moth) […] larvae infested on compound pre-treated fresh cabbage leaves assessed as larvicidal activity at 0.2 mg/L measured 3 days post treatment
Plutella xylostella [12] = assay: Insecticidal activity against Plutella xylostella (diamondback moth) […] larvae infested on compound pre-treated fresh cabbage leaves assessed as larvicidal activity at 0.02 mg/L measured 3 days post treatment
Mythimna separata [13] = assay: Insecticidal activity against Mythimna separata (Oriental armyworm) fourth-instar larvae infested compound pre-treated corn leaves assessed as larvicidal activity at 2.5 mg/L measured 4 days post treatment
Mythimna separata [14] = assay: Insecticidal activity against Mythimna separata (Oriental armyworm) fourth-instar larvae infested compound pre-treated corn leaves assessed as larvicidal activity at 5 mg/L measured 4 days post treatment
Plutella xylostella [15] = assay: Insecticidal activity against Plutella xylostella (diamondback moth) […] larvae infested on compound pre-treated fresh cabbage leaves assessed as larvicidal activity at 2 mg/L measured 3 days post treatment
Mythimna separata [16] = assay: Insecticidal activity against Mythimna separata (Oriental armyworm) fourth-instar larvae infested compound pre-treated corn leaves assessed as larvicidal activity at 200 mg/L measured 4 days post treatment
Mythimna separata [17] = assay: Insecticidal activity against Mythimna separata (Oriental armyworm) fourth-instar larvae infested compound pre-treated corn leaves assessed as larvicidal activity at 0.5 mg/L measured 4 days post treatment
Mythimna separata [18] = assay: Insecticidal activity against Mythimna separata (Oriental armyworm) fourth-instar larvae infested compound pre-treated corn leaves assessed as larvicidal activity at 1 mg/L measured 4 days post treatment
Culex pipiens pallens [19] = assay: Insecticidal activity against Culex pipiens pallens (mosquito) fourth-instar larvae assessed as larvicidal activity at 0.001 mg/L measured 8 days post treatment; conditions: 192 h
Culex pipiens pallens [20] = assay: Insecticidal activity against Culex pipiens pallens (mosquito) fourth-instar larvae assessed as larvicidal activity at 0.0005 mg/L measured 8 days post treatment; conditions: 192 h
Plutella xylostella [21] = assay: Insecticidal activity against Plutella xylostella (diamondback moth) […] larvae infested on compound pre-treated fresh cabbage leaves assessed as larvicidal activity measured 3 days post treatment
Mythimna separata [22] = assay: Insecticidal activity against Mythimna separata (Oriental armyworm) fourth-instar larvae infested compound pre-treated corn leaves assessed as larvicidal activity at 0.25 mg/L measured 4 days post treatment
Culex pipiens pallens [23] = assay: Insecticidal activity against Culex pipiens pallens (mosquito) fourth-instar larvae assessed as larvicidal activity at 0.005 mg/L measured 8 days post treatment; conditions: 192 h
Culex pipiens pallens [24] = assay: Insecticidal activity against Culex pipiens pallens (mosquito) fourth-instar larvae assessed as larvicidal activity at 0.25 mg/L measured 8 days post treatment; conditions: 192 h
Culex pipiens pallens [25] = assay: Insecticidal activity against Culex pipiens pallens (mosquito) fourth-instar larvae assessed as larvicidal activity at 0.1 mg/L measured 8 days post treatment; conditions: 192 h
Plutella xylostella [26] = assay: Insecticidal activity against Plutella xylostella (diamondback moth) […] larvae infested on compound pre-treated fresh cabbage leaves assessed as larvicidal activity at 100 mg/L measured 3 days post treatment
Culex pipiens pallens [27] = assay: Insecticidal activity against Culex pipiens pallens (mosquito) fourth-instar larvae assessed as larvicidal activity at 0.05 mg/L measured 8 days post treatment; conditions: 192 h
Culex pipiens pallens [28] = assay: Insecticidal activity against Culex pipiens pallens (mosquito) fourth-instar larvae assessed as larvicidal activity at 0.025 mg/L measured 8 days post treatment; conditions: 192 h

Row | Structure (SMILES) | mortality at 2 µg/mL (Culex pipiens pallens [1]) | mortality at 200 µg/mL (Plutella xylostella [2]) | mortality at 100 µg/mL (Mythimna separata [3]) | mortality at 50 µg/mL (Mythimna separata [4]) | mortality at 20 µg/mL (Plutella xylostella [9]) | further results
1 | O=C(NC(=O)c1c(F)cccc1F)Nc1ccc(C2=NOC3(CCCCC3)C2)cc1 | 70% | 20% | 100% | 40% |  | 
2 | O=C(NC(=O)c1c(F)cccc1F)Nc1ccc(C2=NOC3(CCCC3)C2)cc1 | 80% | 10% | 100% | 60% |  | 
3 | O=C(NC(=O)c1c(F)cccc1F)Nc1ccc(C2=NOC3CCCC23)cc1 (stereo not given) | 50% | 0% | 100% | 0% |  | 
4 | O=C(NC(=O)c1c(F)cccc1F)Nc1ccc(C2=NOC3CC23)cc1 (stereo not given) | 60% | 10% | 100% | 0% |  | 
5 | O=C(NC(=O)c1c(F)cccc1F)Nc1ccc(C2CC(c3ccc(F)cc3)=NO2)cc1 (stereo not given) | 100% | 100% |  | 100% | 70% | mortality at 0.5 µg/mL (Culex pipiens pallens [5]): 70%; mortality at 25 µg/mL (Mythimna separata [6]): 100%; mortality at 1 µg/mL (Culex pipiens pallens [7]): 100%; mortality at 10 µg/mL (Mythimna separata [8]): 60%; mortality at 5 µg/mL (Plutella xylostella [10]): 0%
6 | CC(C)(C)C1=NOC(c2ccc(NC(=O)NC(=O)c3c(F)cccc3F)cc2)C1 (stereo not given) | 100% | 100% |  | 100% | 100% | mortality at 25 µg/mL (Mythimna separata [6]): 100%; mortality at 1 µg/mL (Culex pipiens pallens [7]): 80%; mortality at 10 µg/mL (Mythimna separata [8]): 40%; mortality at 5 µg/mL (Plutella xylostella [10]): 30%
7 | CC(C)(C)c1cc(-c2ccc(NC(=O)NC(=O)c3c(F)cccc3F)cc2)no1 | 40% |  |  |  |  | mortality at 0.2 µg/mL (Plutella xylostella [11]): 60%; mortality at 0.02 µg/mL (Plutella xylostella [12]): 30%; mortality at 2.5 µg/mL (Mythimna separata [13]): 0%; mortality at 5 µg/mL (Mythimna separata [14]): 100%; mortality at 10 µg/mL (Mythimna separata [8]): 100%; mortality at 5 µg/mL (Plutella xylostella [10]): 100%; mortality at 2 µg/mL (Plutella xylostella [15]): 100%
8 | O=C(NC(=O)c1c(F)cccc1F)Nc1ccc(-c2cc(COCC(F)(F)F)on2)cc1 | 40% | 30% | 100% | 20% | 0% | mortality at 200 µg/mL (Mythimna separata [16]): 100%
9 | CCCCOCc1cc(-c2ccc(NC(=O)NC(=O)c3c(F)cccc3F)cc2)no1 | 60% | 0% | 100% | 80% |  | mortality at 200 µg/mL (Mythimna separata [16]): 100%
10 | Cc1cc(-c2ccc(NC(=O)NC(=O)c3c(F)cccc3F)cc2)no1 | 20% | 10% | 100% | 20% |  | mortality at 200 µg/mL (Mythimna separata [16]): 100%
11 | CCCCCCCCc1cc(-c2ccc(NC(=O)NC(=O)c3c(F)cccc3F)cc2)no1 | 40% | 10% | 100% | 20% |  | mortality at 200 µg/mL (Mythimna separata [16]): 100%
12 | CC(C)(C)O/N=C/c1ccc(NC(=O)NC(=O)c2c(F)cccc2F)cc1 |  |  |  |  |  | mortality at 0.5 µg/mL (Mythimna separata [17]): 85%; mortality at 1 µg/mL (Mythimna separata [18]): 100%; mortality at 0.001 µg/mL (Culex pipiens pallens [19]): 70%; mortality at 0.0005 µg/mL (Culex pipiens pallens [20]): 20%; LC50 (Plutella xylostella [21]): 30.8 µg/mL (≈ 82 µM); mortality at 0.25 µg/mL (Mythimna separata [22]): 0%; mortality at 0.005 µg/mL (Culex pipiens pallens [23]): 100%
13 | CC(C)(C)C1CC(c2ccc(NC(=O)NC(=O)c3c(F)cccc3F)cc2)=NO1 (stereo not given) |  |  |  | 100% |  | mortality at 0.2 µg/mL (Plutella xylostella [11]): 70%; mortality at 0.02 µg/mL (Plutella xylostella [12]): 10%; mortality at 25 µg/mL (Mythimna separata [6]): 100%; mortality at 0.25 µg/mL (Culex pipiens pallens [24]): 100%; mortality at 5 µg/mL (Mythimna separata [14]): 40%; mortality at 10 µg/mL (Mythimna separata [8]): 100%; mortality at 0.1 µg/mL (Culex pipiens pallens [25]): 50%; mortality at 5 µg/mL (Plutella xylostella [10]): 100%; mortality at 2 µg/mL (Plutella xylostella [15]): 80%
14 | O=C(NC(=O)c1c(F)cccc1F)Nc1ccc(C2=NOC(c3ccc(F)cc3)C2)cc1 (stereo not given) | 40% |  |  |  | 100% | mortality at 200 µg/mL (Mythimna separata [16]): 10%; mortality at 5 µg/mL (Plutella xylostella [10]): 80%; mortality at 2 µg/mL (Plutella xylostella [15]): 30%
15 | CCCCC1CC(c2ccc(NC(=O)NC(=O)c3c(F)cccc3F)cc2)=NO1 (stereo not given) | 30% | 80% | 100% | 0% | 20% | mortality at 100 µg/mL (Plutella xylostella [26]): 70%; mortality at 200 µg/mL (Mythimna separata [16]): 100%
16 | O=C(NC(=O)c1c(F)cccc1F)Nc1ccc(C2=NOC(CBr)C2)cc1 (stereo not given) | 60% | 40% | 100% | 20% | 0% | 
17 | CCCCCCCC1CC(c2ccc(NC(=O)NC(=O)c3c(F)cccc3F)cc2)=NO1 (stereo not given) | 50% | 0% | 100% | 60% |  | 
18 | N#CC1CC(c2ccc(NC(=O)NC(=O)c3c(F)cccc3F)cc2)=NO1 (stereo not given) |  | 0% | 100% | 0% |  | mortality at 0.25 µg/mL (Culex pipiens pallens [24]): 100%; mortality at 0.1 µg/mL (Culex pipiens pallens [25]): 70%
19 | COC(=O)C1CC(c2ccc(NC(=O)NC(=O)c3c(F)cccc3F)cc2)=NO1 (stereo not given) | 60% | 10% | 100% | 0% |  | 
20 | CCCCOCC1CC(c2ccc(NC(=O)NC(=O)c3c(F)cccc3F)cc2)=NO1 (stereo not given) | 100% | 10% | 100% | 40% |  | mortality at 1 µg/mL (Culex pipiens pallens [7]): 80%
21 | O=C(NC(=O)c1c(F)cccc1F)Nc1ccc(C2=NOC(COCC(F)(F)F)C2)cc1 (stereo not given) | 40% | 0% | 100% | 60% |  | 
22 | O=C(NC(=O)c1c(F)cccc1F)Nc1ccc(C2=NOC(c3ccccc3)C2)cc1 (stereo not given) |  | 50% | 100% | 0% | 30% | mortality at 0.25 µg/mL (Culex pipiens pallens [24]): 100%; mortality at 0.1 µg/mL (Culex pipiens pallens [25]): 90%
23 | CC1(c2ccccc2)CC(c2ccc(NC(=O)NC(=O)c3c(F)cccc3F)cc2)=NO1 (stereo not given) |  | 100% | 100% | 60% | 30% | mortality at 0.5 µg/mL (Culex pipiens pallens [5]): 100%; mortality at 100 µg/mL (Plutella xylostella [26]): 80%; mortality at 0.25 µg/mL (Culex pipiens pallens [24]): 100%; mortality at 200 µg/mL (Mythimna separata [16]): 100%; mortality at 0.1 µg/mL (Culex pipiens pallens [25]): 80%
24 | O=C(NC(=O)c1c(F)cccc1F)Nc1ccc(CO/N=C(/c2ccc(Cl)cc2)C2CC2)cc1 [FLUCYCLOXURON] |  |  |  |  |  | mortality at 1 µg/mL (Mythimna separata [18]): 10%; mortality at 0.05 µg/mL (Culex pipiens pallens [27]): 100%; mortality at 2.5 µg/mL (Mythimna separata [13]): 50%; mortality at 5 µg/mL (Mythimna separata [14]): 90%; mortality at 0.025 µg/mL (Culex pipiens pallens [28]): 15%; mortality at 10 µg/mL (Mythimna separata [8]): 95%; mortality at 0.1 µg/mL (Culex pipiens pallens [25]): 100%
